Experimental data from article PMC9072010, “Synthesis and bioevaluation of thienopyrimidines bearing a pyrazoline unit as selective PI3Kα inhibitors” (RSC Advances, 2019).

Legend:
A549 cancer cell lines [1] = test: MTT antiproliferative assay, A549; type: cell-based, human
MCF-7 cancer cell lines = test: MTT antiproliferative assay, MCF-7; type: cell-based, human
HepG2 cancer cell lines = test: MTT antiproliferative assay, HepG2; type: cell-based, human
A549 cancer cell lines [2] = test: Acridine orange (AO) single staining; type: cell-based, human; conditions: A549, fluorescence microscopy, Fig. 4
Protocol: In order to investigate whether the target compound 13f could induce the apoptosis of A549 cancer cell lines, acridine orange (AO) staining assay was carried out. […] But in the test group (Fig. 4b), the cell shape was abnormal with cell shrinkage, chromatin condensation after compound 13f acted on the A549 cells.
The cancer cell apoptotic of target compound 13f were evaluated with A549 cancer cell lines by acridine orange single staining. The experiment was conducted according to the method reported by our research group.[18]

PI3Kα = PI3Kα (Homo sapiens, UniProt P42336); test: Kinase-Glo Luminescent Kinase Assay, PI3Kα; type: biochemical; conditions: average of two separate determinations
Chain of PI3Kα (P42336 whole entry): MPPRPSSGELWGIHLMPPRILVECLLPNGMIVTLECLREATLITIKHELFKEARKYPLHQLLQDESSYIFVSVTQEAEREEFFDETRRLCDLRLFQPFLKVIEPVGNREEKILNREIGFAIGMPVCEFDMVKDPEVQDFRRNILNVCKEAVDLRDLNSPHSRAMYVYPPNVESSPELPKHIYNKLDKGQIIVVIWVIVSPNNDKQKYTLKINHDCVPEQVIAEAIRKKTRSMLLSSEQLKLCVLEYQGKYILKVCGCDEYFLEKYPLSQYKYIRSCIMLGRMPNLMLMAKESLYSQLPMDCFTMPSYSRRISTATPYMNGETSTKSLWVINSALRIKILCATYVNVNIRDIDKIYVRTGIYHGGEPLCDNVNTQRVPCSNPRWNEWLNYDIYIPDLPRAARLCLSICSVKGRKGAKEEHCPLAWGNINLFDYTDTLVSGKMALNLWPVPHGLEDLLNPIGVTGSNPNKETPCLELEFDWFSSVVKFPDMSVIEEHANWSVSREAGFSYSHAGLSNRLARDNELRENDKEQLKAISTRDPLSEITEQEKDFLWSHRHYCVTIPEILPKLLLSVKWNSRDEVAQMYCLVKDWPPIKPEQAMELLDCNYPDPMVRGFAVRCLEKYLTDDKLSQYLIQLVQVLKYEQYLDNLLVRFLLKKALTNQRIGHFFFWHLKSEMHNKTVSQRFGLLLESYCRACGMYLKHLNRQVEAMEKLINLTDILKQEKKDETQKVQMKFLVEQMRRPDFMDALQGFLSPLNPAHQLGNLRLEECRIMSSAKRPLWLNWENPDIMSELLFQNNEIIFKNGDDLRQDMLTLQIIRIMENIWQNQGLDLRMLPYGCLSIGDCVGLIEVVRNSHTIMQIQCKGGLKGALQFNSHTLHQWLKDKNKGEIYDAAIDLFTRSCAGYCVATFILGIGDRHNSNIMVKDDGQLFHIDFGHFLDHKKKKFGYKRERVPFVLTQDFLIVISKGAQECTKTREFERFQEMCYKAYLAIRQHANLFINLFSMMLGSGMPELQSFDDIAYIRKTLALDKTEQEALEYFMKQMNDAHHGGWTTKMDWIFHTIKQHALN
Chain of PI3Kα (P27986 whole entry partner): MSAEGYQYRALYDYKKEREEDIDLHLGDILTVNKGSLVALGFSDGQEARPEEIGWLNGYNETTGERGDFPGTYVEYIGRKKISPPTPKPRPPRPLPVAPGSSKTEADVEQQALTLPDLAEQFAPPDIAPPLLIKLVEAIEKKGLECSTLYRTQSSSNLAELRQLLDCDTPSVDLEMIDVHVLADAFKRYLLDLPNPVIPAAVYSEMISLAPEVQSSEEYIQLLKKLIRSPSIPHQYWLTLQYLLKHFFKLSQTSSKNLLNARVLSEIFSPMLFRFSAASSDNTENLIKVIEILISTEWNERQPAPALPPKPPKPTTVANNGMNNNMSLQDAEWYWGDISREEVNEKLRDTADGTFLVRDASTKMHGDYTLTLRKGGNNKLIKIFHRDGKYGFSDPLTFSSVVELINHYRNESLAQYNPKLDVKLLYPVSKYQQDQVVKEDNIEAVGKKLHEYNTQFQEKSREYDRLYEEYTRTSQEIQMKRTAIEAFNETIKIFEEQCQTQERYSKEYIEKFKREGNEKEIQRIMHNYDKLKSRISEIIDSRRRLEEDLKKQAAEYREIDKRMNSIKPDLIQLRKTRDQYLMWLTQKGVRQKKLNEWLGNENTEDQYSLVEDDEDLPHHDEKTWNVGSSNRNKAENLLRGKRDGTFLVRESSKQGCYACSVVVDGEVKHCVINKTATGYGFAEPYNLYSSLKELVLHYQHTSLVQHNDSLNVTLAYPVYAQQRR
Protocol: The experiment was conducted according to the method reported by our research group.[17]

mTOR = mTOR (Homo sapiens, UniProt P42345); test: Kinase-Glo Luminescent Kinase Assay, mTOR; type: biochemical; conditions: average of two separate determinations
A549 cells = test: Annexin V-FITC/PI double staining by flow cytometry; type: cell-based, human
[3] = Homo sapiens, A549, Table 1, average of two separate determinations
[4] = Homo sapiens, MCF7, Table 1, average of two separate determinations
[5] = Homo sapiens, HepG2, Table 1, average of two separate determinations
[6] = Homo sapiens, A549, Table 2, average of two separate determinations
[7] = Homo sapiens, MCF7, Table 2, average of two separate determinations
[8] = Homo sapiens, HepG2, Table 2, average of two separate determinations
[9] = Table 2, average of two separate determinations

| IC50 (A549 cancer cell lines [1]; [3]) [µM] | melting point [°C] | IC50 (MCF-7 cancer cell lines; [4]) [µM] | IC50 (HepG2 cancer cell lines; [5]) [µM] | IC50 (A549 cancer cell lines [1]; [6]) [µM] | IC50 (MCF-7 cancer cell lines; [7]) [µM] | IC50 (HepG2 cancer cell lines; [8]) [µM] | Compound | also measured |
| --- | --- | --- | --- | --- | --- | --- | --- | --- |
| 37.6 ± 1.88 | 223 to 225 | 25.3 ± 0.93 | 20.2 ± 1.15 |  |  |  | c1ccc(-c2ccnn2-c2nc(N3CCOCC3)c3ccsc3n2)cc1 [Compound 7a, 4-(2-(5-Phenyl-1H-pyrazol-1-yl)thieno[2,3-d]pyrimidin-4-yl)morpholine] |  |
|  |  |  |  | 2.84 ± 0.09 | 2.88 ± 0.43 | 2.08 ± 0.36 | COc1ccc(C2CC(c3ccccc3)=NN2c2nc(N(C)CCN(C)C)c3ccsc3n2)cc1 (stereo not drawn) [Compound 13f, N ^1-(2-(5-(4-Methoxyphenyl)-3-phenyl-4,5-dihydro-1H-pyrazol-1-yl)thieno[2,3-d]pyrimidin-4-yl)-N^1,N^2,N^2-trimethylethane-1,2-diamine] | inhibition of proliferation of A549 cancer cell lines (dose and time dependence) (A549 cancer cell lines [1]; several concentrations and exposure times, Fig. 3): dose-dependent and time-dependent; induction of apoptosis (cell morphology, AO staining) (A549 cancer cell lines [2]): could induce apoptosis; IC50 (PI3Kα): 0.92 ± 0.14 µM; IC50 (mTOR): > 10 µM; early apoptotic cells (A549 cells; A549, 1.6 μM, 24 h): 9.14%; late apoptotic cells (A549 cells; A549, 1.6 μM, 24 h): 7.68%; induction of apoptosis (Annexin V-FITC/PI) (A549 cells; A549, 0.2-1.6 μM): induce apoptosis in a concentration-dependent manner |
|  | 232 to 233 |  |  |  |  |  | COc1ccc(C2CC(c3ccc(Cl)c(Cl)c3)=NN2c2nc(N(C)CCN(C)C)c3ccsc3n2)cc1 (stereo not drawn) [Compound 13a, N ^1-(2-(3-(3,4-Dichlorophenyl)-5-(4-methoxyphenyl)-4,5-dihydro-1H-pyrazol-1-yl)thieno[2,3-d]pyrimidin-4-yl)-N^1,N^2,N^2-trimethylethane-1,2-diamine] |  |
| > 100 | 228 to 231 | > 100 | > 100 |  |  |  | Fc1ccc(-c2ccnn2-c2nc(N3CCOCC3)c3sccc3n2)cc1 [Compound 4c, 4-(2-(5-(4-Fluorophenyl)-1H-pyrazol-1-yl)thieno[3,2-d]pyrimidin-4-yl)morpholine] |  |
|  | 291 to 294 |  |  | 17.43 ± 0.13 | 12.8 ± 0.23 | 12.9 ± 0.64 | CN(C)CCN(C)c1nc(N2N=C(c3ccc(Cl)c(Cl)c3)CC2c2ccc(Br)cc2)nc2sccc12 (stereo not drawn) [Compound 13b, N ^1-(2-(5-(4-Bromophenyl)-3-(3,4-dichlorophenyl)-4,5-dihydro-1H-pyrazol-1-yl)thieno[2,3-d]pyrimidin-4-yl)-N^1,N^2,N^2-trimethylethane-1,2-diamine] |  |
|  | 261 to 262 |  |  | 22.95 ± 0.15 | 17.2 ± 0.48 | 15.8 ± 1.23 | CN(C)CCN(C)c1nc(N2N=C(c3ccc(Br)cc3)CC2c2ccccc2)nc2sccc12 (stereo not drawn) [Compound 13l, N ^1-(2-(3-(4-Bromophenyl)-5-phenyl-4,5-dihydro-1H-pyrazol-1-yl)thieno[2,3-d]pyrimidin-4-yl)-N^1,N^2,N^2-trimethylethane-1,2-diamine] |  |
|  | 286 to 287 |  |  |  |  | 83.86 ± 0.17 | COc1ccc(C2CC(c3ccc(F)cc3)=NN2c2nc(N(C)CCN(C)C)c3ccsc3n2)cc1 (stereo not drawn) [Compound 13j, N ^1-(2-(3-(4-Fluorophenyl)-5-(4-methoxyphenyl)-4,5-dihydro-1H-pyrazol-1-yl)thieno[2,3-d]pyrimidin-4-yl)-N^1,N^2,N^2-trimethylethane-1,2-diamine] |  |
|  |  |  |  |  |  |  | N ^1-(2-(3-(3,4-Dichlorophenyl)-3-phenyl-4,5-dihydro-1H-pyrazol-1-yl)thieno[2,3-d]pyrimidine-4-yl)-N^1, N^2,N^2-trimethylethane-1,2-diamine [Compound 13e] | IC50 (A549 cancer cell lines [1]; [9]): 13.4 ± 0.29 µM; IC50 (MCF-7 cancer cell lines; [9]): 10.5 ± 0.54 µM; IC50 (HepG2 cancer cell lines; [9]): 8.05 ± 0.05 µM |
|  | 244 to 247 |  |  | 9.17 ± 0.32 | 6.82 ± 0.17 | 7.27 ± 0.68 | CN(C)CCN(C)c1nc(N2N=C(c3ccc(Cl)c(Cl)c3)CC2c2ccc(F)cc2)nc2sccc12 (stereo not drawn) [Compound 13d, N ^1-(2-(3-(3,4-Dichlorophenyl)-5-(4-fluorophenyl)-4,5-dihydro-1H-pyrazol-1-yl)thieno[2,3-d]pyrimidin-4-yl)-N^1,N^2,N^2-trimethylethane-1,2-diamine] |  |
|  | 256 to 257 |  |  | 9.23 ± 0.02 | 6.51 ± 0.31 | 6.66 ± 0.13 | CN(C)CCN(C)c1nc(N2N=C(c3ccc(F)cc3)CC2c2ccc(F)cc2)nc2sccc12 (stereo not drawn) [Compound 13c, N ^1-(2-(3,5-Bis(4-fluorophenyl)-4,5-dihydro-1H-pyrazol-1-yl)thieno[2,3-d]pyrimidin-4-yl)-N^1,N^2,N^2-tri-methylethane-1,2-diamine] | IC50 (PI3Kα): 4.62 ± 0.54 µM; IC50 (mTOR): > 10 µM |
| > 100 | 166.8 to 171.5 | > 100 | > 100 |  |  |  | Cc1ccc(-c2ccnn2-c2nc(N3CCOCC3)c3sccc3n2)cc1 [Compound 4b, 4-(2-(5-(p-Tolyl)-1H-pyrazol-1-yl)thieno[3,2-d]pyrimidin-4-yl)morpholine] |  |
| > 100 | 202 to 205 | > 100 | > 100 |  |  |  | Fc1ccc(-c2ccnn2-c2nc(N3CCOCC3)c3ccsc3n2)cc1 [Compound 7c, 4-(2-(5-(4-Fluorophenyl)-1H-pyrazol-1-yl)thieno[2,3-d]pyrimidin-4-yl)morpholine] |  |
|  | 269 to 270 |  |  | 8.75 ± 0.24 | 4.98 ± 0.04 | 6.96 ± 0.44 | Cc1ccc(C2CC(c3ccc(Cl)c(Cl)c3)=NN2c2nc(N(C)CCN(C)C)c3ccsc3n2)cc1 (stereo not drawn) [Compound 13g, N ^1-(2-(3-(3,4-Dichlorophenyl)-5-(p-tolyl)-4,5-dihydro-1H-pyrazol-1-yl)thieno[2,3-d]pyrimidin-4-yl)-N^1,N^2,N^2-trimethylethane-1,2-diamine] | IC50 (PI3Kα): 3.31 ± 0.12 µM; IC50 (mTOR): > 10 µM |
|  | 272 to 273 |  |  | 5.43 ± 0.17 |  | 4.45 ± 0.25 | Cc1ccc(C2CC(c3ccc(Br)cc3)=NN2c2nc(N(C)CCN(C)C)c3ccsc3n2)cc1 (stereo not drawn) [Compound 13h, N ^1-(2-(3-(4-Bromophenyl)-5-(p-tolyl)-4,5-dihydro-1H-pyrazol-1-yl)thieno[2,3-d]pyrimidin-4-yl)-N^1,N^2,N^2-trimethylethane-1,2-diamine] | IC50 (PI3Kα): 7.16 ± 0.27 µM; IC50 (mTOR): > 10 µM |
| > 100 | 250 to 251 | > 100 | > 100 |  |  |  | Clc1ccc(-c2ccnn2-c2nc(N3CCOCC3)c3sccc3n2)cc1 [Compound 4d, 4-(2-(5-(4-Chlorophenyl)-1H-pyrazol-1-yl)thieno[3,2-d]pyrimidin-4-yl)morpholine] |  |
| 35 ± 0.97 | 286 to 289 | 30.9 ± 1.05 | 33.9 ± 1.13 |  |  |  | Cc1ccc(-c2ccnn2-c2nc(N3CCOCC3)c3ccsc3n2)cc1 [Compound 7b, 4-(2-(5-(p-Tolyl)-1H-pyrazol-1-yl)thieno[2,3-d]pyrimidin-4-yl)morpholine] |  |
| 6.99 ± 0.21 |  | 0.07 ± 0.03 | 0.2 ± 0.08 |  | 0.2 ± 0.08 | 0.07 ± 0.03 | CS(=O)(=O)N1CCN(Cc2cc3nc(-c4cccc5[nH]ncc45)nc(N4CCOCC4)c3s2)CC1 [GDC-0941, reference compound] |  |
| > 100 | 280 to 282 | > 100 | > 100 |  |  |  | Clc1ccc(-c2ccnn2-c2nc(N3CCOCC3)c3ccsc3n2)cc1 [Compound 7d, 4-(2-(5-(4-Chlorophenyl)-1H-pyrazol-1-yl)thieno[2,3-d]pyrimidin-4-yl)morpholine] |  |
|  | 291 to 292 |  |  | 22.7 ± 0.35 | 18.39 ± 0.18 | 10.9 ± 0.2 | CN(C)CCN(C)c1nc(N2N=C(c3ccc(Br)cc3)CC2c2ccc(F)cc2)nc2sccc12 (stereo not drawn) [Compound 13k, N ^1-(2-(3-(4-Bromophenyl)-5-(4-fluorophenyl)-4,5-dihydro-1H-pyrazol-1-yl)thieno[2,3-d]pyrimidin-4-yl)-N^1,N^2,N^2-trimethylethane-1,2-diamine] |  |
|  | 225 to 227 |  |  | 9.43 ± 0.1 | 5.04 ± 0.06 | 6.7 ± 0.14 | CN(C)CCN(C)c1nc(N2N=C(c3ccccc3)CC2c2ccccc2)nc2sccc12 (stereo not drawn) [Compound 13i, N ^1-(2-(3,5-Diphenyl-4,5-dihydro-1H-pyrazol-1-yl)thieno[2,3-d]pyrimidin-4-yl)-N^1,N^2,N^2-trimethylethane-1,2-diamine] |  |
| > 100 | 243.6 to 244.8 | > 100 | > 100 |  |  |  | c1ccc(-c2ccnn2-c2nc(N3CCOCC3)c3sccc3n2)cc1 [Compound 4a, 4-(2-(5-Phenyl-1H-pyrazol-1-yl)thieno[3,2-d]pyrimidin-4-yl)morpholine] |  |
